Consider 7 compounds from patent US4595757A, “N-alkylated benzo- and hetero-fused antisecretory agents” (American Home Products Corporation, priority 1984, dated 1986).

Structures are written as SMILES.

Assay [1] has as its target T1, (H^+ +K^+)ATPase (Rattus norvegicus, UniProt P09626).
T1 construct: Rat gastric mucosal tissue is collected from 170-220 g male Sprague-Dawley rats; from tissue; host or cells: Dispersed gastric mucosal cells from male Sprague-Dawley rats (Pronase E digestion)
Briefly: Inhibition of dibutyryl cyclic AMP-stimulated 14C-aminopyrine uptake by rat gastric mucosal cells ((H^+ +K^+)ATPase inhibition). It is filed as cell-based. Conditions: 37° C., 2 hours. From the text: The procedures for these tests and the results for some of the compounds of the invention are presented at the end of the following examples, which will serve to illustrate the present invention. The determination of the rate of gastric acid secretion cannot be measured quantitatively with isolated gastric glands or cells. However, the acid secretory response can be monitored semiquantitatively by measuring the uptake of a radiolabelled weak base, ^14 C-aminopyrine (^14 C-AP), which accumulates in the glands in proportion to the pH differences between the intraglandular acid compartments and the surrounding medium. The following assay uses this effect in order to measure the ability of the compounds of the invention to inhibit gastric acid secretion by blocking (H^+ +K^+)ATPase. Rat gastric mucosal tissue is collected from 170-220 g male Sprague-Dawley rats. […] The Pronase E is poured off and the tissues are rinsed in a small amount of DNAse solution (2.5 mg DNAse in 10 ml of Hanks Balanced Salt Solution (HBE) with addition of 1 mg/ml of BSA and 0.76 mg/ml of EGTA). 4 ml of stock DNAse solution is added to 76 ml of HBE and aerated before use. The pH of the solution is adjusted to 7.5 with 2M Tris Buffer. The comminuted tissue is passed through nylon mesh into DNAse solution and incubated at ambient temperature for 20 minutes. The cells obtained thereby are dispersed, filtered through nylon mesh and centrifuged at 1000 RPM's for 7 minutes. […] Immediately before use, 6.1 mg of L-cysteine is dissolved in 5 ml RPMI-BSA. The final incubation medium is (by volume) 80% RPMI-BSA, 10% glucose/PA/IMX solution and 10% L-cysteine solution. For the actual assay procedure, microfuge tubes are prepared as follows: Into each tube are placed (a) 100 μl of the stimulant dibutyryl cyclic AMP made up in H2 O or an equal volume of distilled H2 O; (b) 100 μl of drug made up in RPMSI-BSA or an equal volume of RPMI-BSA; (c) 750 μl of the cell suspension; and (d) 50 μl of ^14 C-aminopyrine solution. The tubes are shaken in a 37° C. water bath in a O2 /CO2 (95/5%) atmosphere at about 110 cycles/minute, and incubated for 2 hours. The tubes are then microfuged for 30 seconds, the pellet surface rinsed with 500 μl RPMI-BSA and the cells dispersed in 500 μl distilled H2 O. The cells are then transferred to mini-scintillation vials with 5.75 ml of Hydrofluor, vortexed and counted in a Packard liquid scintillation counter. The inhibition of ^14 C-AP uptake is quantified from the scintillation count results and the IC50 for test compounds is calculated. The results for some of the compounds of the invention and for the two known (H^+ +K^+)ATPase inhibitors, omeprazole and timoprazole, are given in Table I.

The subject of assay [2] is spontaneous gastric secretions. Nature of the assay: Pyloric-ligated rat assay (inhibition of gastric acid output). It is filed as in vivo. The settings on record: male rats, intraduodenal, 4 hours after pylorus ligation. The procedure:
The procedures for these tests and the results for some of the compounds of the invention are presented at the end of the following examples, which will serve to illustrate the present invention. […] Male Charles River SC/CD rats weighing 190-260 gm are fasted for 24 hours with access to tap water ad libitum until the test. Groups of 10 rats each are assigned to either control or drug treatment. Under […] anesthesia, a midline laparotomy is performed and a ligature is tightly secured around the pylorus. Either control vehicle (0.25% aqueous methylcellulose) or drug in control vehicle is administered intraduodenally, 1 ml/kg, immediately after ligating the pylorus. The abdominal incision is closed with wound clips and the rats (2 per cage) are allowed to recover from anesthesia. After four hours the rats are sacrificed by CO2 asphyxiation. Their stomachs are removed and the accumulated gastric contents are emptied into graduated tubes. The gastric samples are centrifuged for 10 minutes. Samples contaminated with food or fecal material are discarded. The volume of gastric juice is recorded and the acid concentration of 1.0 ml sample aliquots is measured by electrometric titration to pH 7.0 using 0.1N sodium hydroxide. Titratable acid output is calculated in microequivalents and the percent inhibition of acid output is calculated as follows: [formula] The test results for a compound of the invention and for the known (H^+ +K^+)ATPase inhibitors omeprazole and timoprazole, expressed as ED50 's, are as follows: […]

In assay [3] the test system is cold restraint/stress ulcerogenesis. Briefly: Cold restraint/stress ulcerogenesis assay (cytoprotective effect). In kind it is in vivo. The settings on record: Rattus norvegicus; male rats, oral, cold (4±1° C.) restraint; read-out: Inhibition, ED50 (cold restraint/stress ulcers). The protocol: The procedures for these tests and the results for some of the compounds of the invention are presented at the end of the following examples, which will serve to illustrate the present invention. The ability of the compounds of the invention to exert a cytoprotective effect is examined in the cold restraint/stress ulcerogenesis assay. Male Charles River rats weighing between 120-160 gm are deprived of food for 18 hours with water ad libitum. The rats are divided into groups of ten and dosed by the oral route with test compound, 50 mg/kg, or vehicle control, 0.5% carboxymethylcellulose, in a volume of 5 ml/kg. Immediately after dosing, the animals are inserted into aluminum restraining tubes measuring 15/8 inches in diameter by 8 inches and placed in the cold (4±1° C.). […] At the end of the test period the animals are killed, the duodenum and esophagus ligated, and the stomach removed. The stomachs are inflated with water, opened along the lesser curvature, spread over the index finger, and the mucosa wiped off to expose the submucosa. The number of hemorrhage sites in the submucosa are counted by visual observation and recorded. Compounds are reported by determining (A) a percent inhibition which is calculated as follows: [formula] or (B) a mean ulcer number ±S.E.M. for each drug treated group and comparing it to that calculated for the control group. The test results for a compound of the invention and for the known (H^+ +K^+)ATPhase inhibitors omeprazole and timoprazole, expressed as ED50 's, are as follows: […]

Another assay has as its target T2, H2-receptor (Cavia porcellus, UniProt P47747).
T2 construct: from tissue; host or cells: Guinea pig right atrium, spontaneously beating
Nature of the assay: Histamine-induced positive chronotropic response in the spontaneously beating right atrium of the guinea pig heart (H2-receptor antagonism). Conditions: at a level of 1×10^-6 M; 30 minutes after addition. The procedure: The tissue is allowed to stabilize over 1 hour. Individual contractions are recorded with a force-displacement transducer through a strain gauge coupler. […] The test compound is added to the tissue bath at the desired final concentration. Thirty minutes after addition of the compound, a fresh histamine dose response curve is again obtained. Then the response to histamine in the presence of antagonist is compared to the histamine control response. This procedure is repeated, using fresh tissues, for each concentration of antagonist tested.

Assay [4] relates to isolated guinea pig gastric mucosa. The settings on record: dibutyryl cyclic AMP stimulation after pretreatment with theophylline; cited from earlier work.
Assay [5] deals with (H^+ +K^+)ATPase. Conditions: Fellenius, Nature 220, 159-160 (1981); cited from earlier work.
The test system of a further assay is gastric secretions. Conditions: cited from earlier work.

T1 sequence (P09626 whole entry): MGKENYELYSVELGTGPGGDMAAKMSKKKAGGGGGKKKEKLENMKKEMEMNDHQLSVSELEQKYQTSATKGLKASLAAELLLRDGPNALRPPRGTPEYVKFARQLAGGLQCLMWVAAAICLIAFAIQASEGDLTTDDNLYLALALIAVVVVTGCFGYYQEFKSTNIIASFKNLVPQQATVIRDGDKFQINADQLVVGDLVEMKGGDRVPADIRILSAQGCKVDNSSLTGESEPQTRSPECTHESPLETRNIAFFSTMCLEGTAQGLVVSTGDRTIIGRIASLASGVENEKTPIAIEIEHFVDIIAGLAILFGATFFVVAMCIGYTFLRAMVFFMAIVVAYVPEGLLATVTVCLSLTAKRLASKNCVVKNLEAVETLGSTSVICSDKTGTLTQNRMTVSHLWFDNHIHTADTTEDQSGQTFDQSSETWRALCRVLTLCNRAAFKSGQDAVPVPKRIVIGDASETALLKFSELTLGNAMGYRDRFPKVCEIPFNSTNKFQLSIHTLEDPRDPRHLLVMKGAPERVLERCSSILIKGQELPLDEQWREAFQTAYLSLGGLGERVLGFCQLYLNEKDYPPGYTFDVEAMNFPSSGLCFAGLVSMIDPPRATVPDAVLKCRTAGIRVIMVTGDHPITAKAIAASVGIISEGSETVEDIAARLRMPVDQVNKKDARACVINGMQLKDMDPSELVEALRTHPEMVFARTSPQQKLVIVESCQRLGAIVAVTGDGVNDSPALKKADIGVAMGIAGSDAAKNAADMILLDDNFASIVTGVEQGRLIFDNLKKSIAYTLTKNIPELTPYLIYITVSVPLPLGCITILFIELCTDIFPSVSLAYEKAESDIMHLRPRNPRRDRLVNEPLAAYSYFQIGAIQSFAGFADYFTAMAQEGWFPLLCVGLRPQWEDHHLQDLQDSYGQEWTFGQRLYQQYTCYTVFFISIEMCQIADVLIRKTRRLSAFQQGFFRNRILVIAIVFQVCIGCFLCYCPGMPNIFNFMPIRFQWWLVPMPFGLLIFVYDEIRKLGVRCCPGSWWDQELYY
T1 sequence (P18598 whole entry partner): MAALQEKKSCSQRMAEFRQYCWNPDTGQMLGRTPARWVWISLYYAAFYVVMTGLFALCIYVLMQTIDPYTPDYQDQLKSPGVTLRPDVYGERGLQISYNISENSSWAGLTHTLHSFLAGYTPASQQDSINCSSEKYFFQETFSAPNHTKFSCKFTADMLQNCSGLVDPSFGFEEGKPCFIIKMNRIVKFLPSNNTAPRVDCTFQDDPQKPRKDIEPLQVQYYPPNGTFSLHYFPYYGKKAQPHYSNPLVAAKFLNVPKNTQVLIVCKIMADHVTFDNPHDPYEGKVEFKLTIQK
T2 sequence (P47747 whole entry): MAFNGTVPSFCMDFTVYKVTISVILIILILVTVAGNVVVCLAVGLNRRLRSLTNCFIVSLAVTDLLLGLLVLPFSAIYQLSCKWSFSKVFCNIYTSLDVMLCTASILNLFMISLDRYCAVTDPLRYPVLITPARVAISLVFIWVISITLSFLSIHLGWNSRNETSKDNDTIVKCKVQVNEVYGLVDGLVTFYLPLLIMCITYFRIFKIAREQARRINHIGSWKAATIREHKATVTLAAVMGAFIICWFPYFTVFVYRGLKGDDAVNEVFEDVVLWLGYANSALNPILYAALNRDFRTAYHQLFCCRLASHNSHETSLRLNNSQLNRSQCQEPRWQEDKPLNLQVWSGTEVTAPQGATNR

Broadly, the IC50 is the midpoint of a concentration-inhibition curve. Regarding `[O-][S+](Cc1ccccn1)c1nc2ccccc2[nH]1` (centres unmarked) [timoprazole], at (H^+ +K^+)ATPase [1], the IC50 turned out to be 1 µM. For the same compound, the ED50 is 4 mg/kg in assay [2] and 8 mg/kg in assay [3].

Consider `O=S1(=O)N=C(N(CCCOc2cccc(CN3CCCCC3)c2)Cc2ccc3c(c2)OCO3)c2cscc21` [Example 3, N-(1,3-benzodioxol-5-ylmethyl)-N-[3-[3-(1-piperidinylmethyl)phenoxy]propyl]thieno[3,4-d]isothiazol-3-amine 1,1-dioxide, ethanedioate (1:1)], for which the IC50 at (H^+ +K^+)ATPase [1] turned out to be 5 µM.

As to `Nc1c(N(CCCOc2cccc(CN3CCCCC3)c2)Cc2ccc3c(c2)OCO3)c(=O)c1=O` [Example 4], the IC50 at (H^+ +K^+)ATPase [1] stood at 10 µM.

For `O=S1(=O)N=C(N(CCCOc2cccc(CN3CCCCC3)c2)Cc2ccccc2)c2cscc21` [Example 1, N-(Phenylmethyl)-N-[3-[3-(1-piperidinylmethyl)phenoxy]propyl]thieno[3,4-d]isothiazol-3-amine 1,1-dioxide, ethanedioate (1:1)], the IC50 on (H^+ +K^+)ATPase [1] was 0.4 µM. Further, the figures for the ED50 in assay [2] and in assay [3] were 8 mg/kg and 6 mg/kg, respectively. For the same compound, on H2-receptor, the “H2-receptor antagonist activity (guinea pig right atrium)” value was “inactive”.

On to `O=S1(=O)N=C(N(CCCOc2cccc(CN3CCCCC3)c2)Cc2ccccc2)c2ccccc21` [Example 2, N-(Phenylmethyl)-N-[3-[3-(1-piperidinylmethyl)phenoxy]propyl]-1,2-benzoisothiazol-3-amine 1,1-dioxide, ethanedioate], for which the IC50 at (H^+ +K^+)ATPase [1] is 0.1 µM.

For `COc1ccc2[nH]c([S+]([O-])Cc3ncc(C)c(OC)c3C)nc2c1` (centres unmarked) [omeprazole], the 50% inhibitory concentration (IC50) at (H^+ +K^+)ATPase [1] came to 0.01 µM. Moreover, the ED50 amounted to 6 mg/kg in assay [2] and 12 mg/kg in assay [3]. For the same compound, the “inhibition of stimulated secretion in isolated guinea pig gastric mucosa” value in assay [4] is “such stimulated secretion can be inhibited by omeprazole”. Also, the “inhibition of proton transport by inhibition of (H^+ +K^+)ATPase” value in the assay with (H^+ +K^+)ATPase [5] is on record as “only omeprazole inhibited proton transport by the inhibition of (H^+ +K^+)ATPase”.

For `CN/C(=N/CCSCc1nc[nH]c1C)NC#N` [cimetidine], in the assay on (H^+ +K^+)ATPase [5], the “inhibition of proton transport by inhibition of (H^+ +K^+)ATPase” value was “devoid of this activity”. Also, in the assay on gastric secretions, the “inhibition of gastric secretions” value was “inhibit only those gastric secretions which were agonized by histamine”.
